Key:
[1] = tested on: kinases other than LRRK2 (off-target kinases); assay: KiNativ broad kinase profiling in human PBMCs; assay type: binding; conditions: 100 nM
Protocol: Compounds were shipped to ActivX Technologies (San Diego, US) where LRRK2 target engagement and broad kinase profiling was performed using KiNativ™ procedures. Live cell treatment of human peripheral blood mononuclear cells (PBMCs) at two compound concentrations (1 µM and 0.1 µM) were used to evaluate and compare in vitro target engagement and kinase selectivity, respectively (see Supplementary File 1).

[2] = tested on: T1, total LRRK2; assay: Western Blot, cultured immune stimulated human PBMCs; assay type: cell-based; conditions: 100 nM; 24hr; PMA/INF-γ stimulated PBMCs, 3 DIV
T1 construct: human primary cells expressing endogenous levels of LRRK2; endogenous in cells; host or cells: human PBMCs from healthy donors

[3] = tested on: T2, TAK1; assay: KiNativ profiling in human PBMCs; assay type: binding; conditions: Lys2
T2 construct: purchased ActivX Technologies (KiNativ)
In short: (§1)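 Two test concentrations, 1 µM and 0.1 µM, were used on live-cell PBMC cultures to gauge target engagement and kinase selectivity via KiNativ profiling.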

[4] = tested on: T3, SLK; assay: KiNativ profiling in human PBMCs; assay type: binding
T3 construct: purchased ActivX Technologies (KiNativ)
In short: as §1

[5] = tested on: T4, PRP4; assay: KiNativ profiling in human PBMCs; assay type: binding; conditions: for Inhibition: Other
T4 construct: purchased ActivX Technologies (KiNativ)
In short: as §1

[6] = tested on: T5, PIK3CD; assay: KiNativ profiling in human PBMCs; assay type: binding; conditions: ATP
T5 construct: purchased ActivX Technologies (KiNativ)
In short: as §1

[7] = tested on: T6, MAP3K5; assay: KiNativ profiling in human PBMCs; assay type: binding; conditions: Lys2
T6 construct: purchased ActivX Technologies (KiNativ)
In short: as §1

[8] = tested on: T7, CDK5; assay: KiNativ profiling in human PBMCs; assay type: binding
T7 construct: purchased ActivX Technologies (KiNativ)
In short: as §1

[9] = tested on: T8, EphA1; assay: KiNativ profiling in human PBMCs; assay type: binding; conditions: Activation Loop
T8 construct: purchased ActivX Technologies (KiNativ)

[10] = tested on: T9, MARK4; assay: KiNativ profiling in human PBMCs; assay type: binding; conditions: Lys2
T9 construct: purchased ActivX Technologies (KiNativ)

[11] = tested on: T10, COT; assay: KiNativ profiling in human PBMCs; assay type: binding; conditions: ATP Loop
T10 construct: purchased ActivX Technologies (KiNativ)

[12] = tested on: T11, FAK; assay: KiNativ profiling in human PBMCs; assay type: binding; conditions: Activation Loop
T11 construct: purchased ActivX Technologies (KiNativ)

[13] = tested on: T12, PKD3; assay: KiNativ profiling in human PBMCs; assay type: binding
T12 construct: purchased ActivX Technologies (KiNativ)

[14] = tested on: T13, TGFbR2; assay: KiNativ profiling in human PBMCs; assay type: binding; conditions: Lys2
T13 construct: purchased ActivX Technologies (KiNativ)

[15] = tested on: ROCK1, ROCK2; assay: KiNativ profiling in human PBMCs; assay type: binding; conditions: Lys2
[16] = tested on: T14, ZC2/TNIK; assay: KiNativ profiling in human PBMCs; assay type: binding; conditions: Lys1
T14 construct: purchased ActivX Technologies (KiNativ)

[17] = tested on: T15, PEK; assay: KiNativ profiling in human PBMCs; assay type: binding; conditions: Lys2
T15 construct: purchased ActivX Technologies (KiNativ)

[18] = tested on: T16, TEC; assay: KiNativ profiling in human PBMCs; assay type: binding; conditions: Activation Loop
T16 construct: purchased ActivX Technologies (KiNativ)

[19] = tested on: T17, MAP2K2; assay: KiNativ profiling in human PBMCs; assay type: binding; conditions: Lys2
T17 construct: purchased ActivX Technologies (KiNativ)

[20] = tested on: T18, SRC; assay: KiNativ profiling in human PBMCs; assay type: binding; conditions: Lys1
T18 construct: purchased ActivX Technologies (KiNativ)

[21] = tested on: T19, p38b; assay: KiNativ profiling in human PBMCs; assay type: binding; conditions: Protein Kinase Domain
T19 construct: purchased ActivX Technologies (KiNativ)

[22] = tested on: T20, ATR; assay: KiNativ profiling in human PBMCs; assay type: binding; conditions: ATP
T20 construct: purchased ActivX Technologies (KiNativ)

[23] = tested on: T21, PHKg2; assay: KiNativ profiling in human PBMCs; assay type: binding; conditions: Lys1
T21 construct: purchased ActivX Technologies (KiNativ)

[24] = tested on: T22, VRK2; assay: KiNativ profiling in human PBMCs; assay type: binding; conditions: Lys2
T22 construct: purchased ActivX Technologies (KiNativ)

[25] = tested on: T23, PKN2; assay: KiNativ profiling in human PBMCs; assay type: binding; conditions: Lys2
T23 construct: purchased ActivX Technologies (KiNativ)

[26] = tested on: T24, NEK3; assay: KiNativ profiling in human PBMCs; assay type: binding; conditions: Activation Loop
T24 construct: purchased ActivX Technologies (KiNativ)

[27] = tested on: T25, CDK9; assay: KiNativ profiling in human PBMCs; assay type: binding; conditions: Lys2
T25 construct: purchased ActivX Technologies (KiNativ)

[28] = tested on: T26, SRPK1; assay: KiNativ profiling in human PBMCs; assay type: binding; conditions: Lys2
T26 construct: purchased ActivX Technologies (KiNativ)

[29] = tested on: T27, MAP3K3; assay: KiNativ profiling in human PBMCs; assay type: binding; conditions: Lys1
T27 construct: purchased ActivX Technologies (KiNativ)

[30] = tested on: T28, PKCh; assay: KiNativ profiling in human PBMCs; assay type: binding; conditions: Lys1
T28 construct: purchased ActivX Technologies (KiNativ)

[31] = tested on: MARK3, MARK4; assay: KiNativ profiling in human PBMCs; assay type: binding; conditions: Lys1

Cc1cccc(-c2cc(Nc3ccn(C)n3)nc3[nH]cc(C#N)c23)c1 [Lu AF58786]
inhibition of other kinases ([1]; human PBMCs): no inhibition | total LRRK2 protein levels [2]: significantly lowers | Inhibition ([3]; 0.1µM): 21.8% | Inhibition ([3]; 1µM): -11.4% | Inhibition ([4]; 0.1µM, Lys1): -13.3% | Inhibition ([4]; 0.1µM, Lys2): 8.0% | Inhibition ([4]; 1µM, Lys1): 25.5% | Inhibition ([4]; 1µM, Lys2): -7.2% | Inhibition ([5]; 0.1 µM): -2.3% | Inhibition ([5]; 1 µM): 3.0% | Inhibition ([6]; 0.1 µM, TKVNWLAHNVSKDNRQ): -4.8% | Inhibition ([6]; 0.1 µM, VNWLAHNVSKDNRQ): 8.9% | Inhibition ([6]; 1 µM, TKVNWLAHNVSKDNRQ): 14.4% | Inhibition ([6]; 1 µM, VNWLAHNVSKDNRQ): 18.8% | Inhibition ([7]; 0.1µM): 4.3% | Inhibition ([7]; 1µM): -3.2% | Inhibition ([8]; 0.1µM, Lys1): 15.8% | Inhibition ([8]; 0.1µM, Lys2): 2.3% | Inhibition ([8]; 1µM, Lys1): 17.6% | Inhibition ([8]; 1µM, Lys2): 2.5%

Cn1cc(-c2c[nH]c3ncnc(N4CCOCC4)c23)cc1C#N [PFE-360]
% Inhibition ([9]; 0.1µM): -12.8% | % Inhibition ([9]; 1µM): -26.9% | inhibition of off-target kinases ([1]; acutely isolated human PBMCs): ≤ 60% | % Inhibition ([10]; 0.1µM): 14.8% | % Inhibition ([10]; 1µM): -6.1% | % Inhibition ([11]; 0.1µM): 26.3% | % Inhibition ([11]; 1µM): 7.7% | % Inhibition ([12]; 0.1µM): 2.6% | % Inhibition ([12]; 1µM): 26.4% | % Inhibition ([13]; 0.1µM, Lys1): 1.2% | % Inhibition ([13]; 0.1µM, Lys2): 17.6% | % Inhibition ([13]; 1µM, Lys1): -10.7% | % Inhibition ([13]; 1µM, Lys2): -1.1% | % Inhibition ([14]; 0.1µM): -5.4% | % Inhibition ([14]; 1µM): -16.3% | % Inhibition ([15]; 0.1µM): -31.8% | % Inhibition ([15]; 1µM): -10.7% | % Inhibition ([16]; 0.1µM): -31.6% | % Inhibition ([16]; 1µM): 12.3% | % Inhibition ([17]; 0.1µM): 10.6% | % Inhibition ([17]; 1µM): 17.3% | % Inhibition ([18]; 0.1µM): -3.8% | % Inhibition ([18]; 1µM): 9.2% | % Inhibition ([19]; 0.1µM): -11.4% | % Inhibition ([19]; 1µM): 20.4% | % Inhibition ([3]; 0.1µM): -3.5% | % Inhibition ([3]; 1µM): -20% | % Inhibition ([4]; 0.1µM, Lys1): 3.8% | % Inhibition ([4]; 0.1µM, Lys2): 4.8% | % Inhibition ([4]; 1µM, Lys1): 22.3% | % Inhibition ([4]; 1µM, Lys2): -8.4% | % Inhibition ([5]; 0.1µM, Lys2): -12.1% | % Inhibition ([5]; 0.1µM, Protein Kinase Domain): -9.2% | % Inhibition ([5]; 1µM, Lys2): -13.6% | % Inhibition ([5]; 1µM, Protein Kinase Domain): -18% | % Inhibition ([6]; 0.1µM, peptide TKVNWLAHNVSKDNRQ): -9.3% | % Inhibition ([6]; 0.1µM, peptide VNWLAHNVSKDNRQ): 0.5% | % Inhibition ([6]; 1µM, peptide TKVNWLAHNVSKDNRQ): -11.6% | % Inhibition ([6]; 1µM, peptide VNWLAHNVSKDNRQ): 1.4% | % Inhibition ([7]; 0.1µM): 44.3% | % Inhibition ([7]; 1µM): 60.3% | % Inhibition ([8]; 0.1µM, Lys1): -2.7% | % Inhibition ([8]; 0.1µM, Lys2): 3.9% | % Inhibition ([8]; 1µM, Lys1): -6.7% | % Inhibition ([8]; 1µM, Lys2): -7.1% | % Inhibition ([20]; 0.1µM): -31.8% | % Inhibition ([20]; 1µM): -0.3% | % Inhibition ([21]; 0.1µM): 3.5% | % Inhibition ([21]; 1µM): 7% | % Inhibition ([22]; 0.1µM): -25.8% | % Inhibition ([22]; 1µM): 10.7% | % Inhibition ([23]; 0.1µM): -21.5% | % Inhibition ([23]; 1µM): -15.8% | % Inhibition ([24]; 0.1µM): -2.9% | % Inhibition ([24]; 1µM): 8.4% | % Inhibition ([25]; 0.1µM): -3% | % Inhibition ([25]; 1µM): -20% | % Inhibition ([26]; 0.1µM): -10.8% | % Inhibition ([26]; 1µM): 1.2% | % Inhibition ([27]; 0.1µM): -8.9% | % Inhibition ([27]; 1µM): -4.4% | % Inhibition ([28]; 0.1µM): 12.7% | % Inhibition ([28]; 1µM): -13.2% | % Inhibition ([29]; 0.1µM): 18.3% | % Inhibition ([29]; 1µM): 16.1% | % Inhibition ([30]; 0.1µM): -10.3% | % Inhibition ([30]; 1µM): -11% | % Inhibition ([31]; 0.1µM): 0.7% | % Inhibition ([31]; 1µM): 3.6%

Source: PMC5578959, “Selective LRRK2 kinase inhibition reduces phosphorylation of endogenous Rab10 and Rab12 in human peripheral mononuclear blood cells” (Scientific Reports, 2017)
